Measured values taken from patent publication US10463618B2, “Nanoemulsions” (The University of Liverpool, priority 2015, dated 2019).

Tests used:
[1] = Solubility of drug in castor oil; type: physicochemical
Protocol: Non-limiting examples of some suitable drugs include for example the antiretroviral drugs Lopinavir (LPV) and Efavirenz (EFV), and the antibiotics Rifampicin and Erythromycin. Practically, approximately 50 mg/ml Efavirenz or 25 mg/ml Lopinavir can be dissolved in castor oil. Stock solutions of drug dissolved in castor oil were produced (50 mg/ml of Efavirenz in castor oil, or 25 mg/ml of Lopinavir in the same oil).

extrinsic pathway = test: Plasma coagulation: prothrombin time (PT); design: species or system Human; details: 37° C., 30 minutes, 0.16-40 μg/mL
Protocol: (§1) The impact of nanoemulsion formulations on plasma coagulation was also assessed. Human blood from three donors was collected by venepuncture into tubes anti-coagulated with sodium citrate; blood was used within one hour of collection. Test plasma was prepared by centrifuging blood at 2500×g, at 21° C., for 10 minutes with the resultant plasma collected and pooled. Pooled plasma was stable at room temperature for 8 hours. Nanoemulsion samples were prepared at 10× the required final concentration to accommodate dilution when added to test plasma. Concentrations and subsequent dilutions were based on the concentration of Efavirenz contained within the samples with dilutions of blank nanoemulsion diluted in the same fashion. Final concentrations tested were 40 μg/mL, 4 μg/mL, 0.8 μg/mL and 0.16 μg/mL. […]
(§2) Cuvettes were placed into A, B, C and D test rows on the coagulometer and one metal ball added into each cuvette (warmed for at least 3 minutes prior to use). […] Once incubation time was complete coagulation reagent was added to each cuvette and coagulation time recorded. Percentage coefficient of variation was calculated for each control and test samples according to the following formula: % CV=SD/Mean×100%. […] Data was expressed as a percentage of the coagulation time recorded for plasma with no nanomaterial present (plasma only control).

final common pathway = test: Plasma coagulation: thrombin time (TT); design: species or system Human; details: 37° C., 30 minutes, 0.16-40 μg/mL
Protocol: as §1, §2

intrinsic pathway = test: Plasma coagulation: activated partial thromboplastin time (APTT); design: species or system Human
Protocol: as §1, §2

[2] = Transcellular permeation assay (Caco-2 transwell); type: in vitro ADME; details: human
Protocol: (§3) Caco-2 cells were seeded at a density of 35,000 cells per well in the apical chamber of a 24 well Corning® HTS® transwell plate, and left to adhere for 24 hours. After this time, culture media was replenished by removal with an aspirator, also removing those cells that had not adhered. Culture media used was DMEM supplemented with 15% fetal bovine serum, which was continually replenished every other day for a three-week period.
(§4) In different wells the apical or basolateral chambers (donor chambers) were loaded with drug or nanoemulsion containing media, with the opposite chambers (acceptor chambers) of those wells being filled with fresh drug-free media. Samples were taken from both apical and basolateral chambers from all wells at 1, 2, and 24 hour time periods. Samples were then immediately frozen at −40° C. for subsequent batch analysis via high performance liquid chromatography to determine the concentration of the drug in the sample.
(§5) The apparent permeability (Papp) was calculated using the following equation: Papp=((A/T)*(V))/(S*0.3).
(§6) Where A is the concentration in the sample, T is the time in seconds at which the sample was collected, V is the total volume of sample contained in the chamber being sampled, S is the initial starting concentration of the drug and 0.3 is the surface area in cm^2 of the transwell insert on which the Caco-2 cells are grown.

Caco-2 cells = test: Transcellular permeation assay (Caco-2 transwell); type: in vitro ADME; details: 10 μM
Protocol: as §3, §4, §5, §6

[3] = Caco-2, 2 hours, read-out: Papp apical to basolateral

Compound	amount that can be dissolved in castor oil [1]	impact on prothrombin time (PT) (extrinsic pathway)	impact on thrombin time (TT) (final common pathway)	impact on APTT coagulation time (intrinsic pathway)	Papp A→B at 2 h, 10 μM [2, 3]	Papp A→B at 24 h, 10 μM ([2]; Caco-2, 24 hours, read-out: Papp apical to basolateral)	Papp basolateral to apical (Caco-2 cells; 1 hour)	Papp basolateral to apical (Caco-2 cells; 2 hours)	Papp A→B at 1 h, 10 μM ([2]; Caco-2, 1 hour, read-out: Papp apical to basolateral)	Papp B→A at 1 h, 10 μM ([2]; Caco-2, 1 hour, read-out: Papp basolateral to apical)	Papp B→A at 2 h, 10 μM ([2]; Caco-2, 2 hours, read-out: Papp basolateral to apical)
O=C1Nc2ccc(Cl)cc2[C@@](C#CC2CC2)(C(F)(F)F)O1 [Efavirenz]	approximately 50 mg/ml	No impact	No impact	did not impact on coagulation time at all	8.2 ×10⁻⁶ cm/s	0.7 ×10⁻⁶ cm/s	increased compared to EFV nanoemulsion	increased compared to EFV nanoemulsion	–	–	–
Cc1cccc(C)c1OCC(=O)N[C@@H](Cc1ccccc1)[C@@H](O)C[C@H](Cc1ccccc1)NC(=O)[C@H](C(C)C)N1CCCNC1=O [Lopinavir]	~25 mg/mL	–	–	–	2.7 ×10⁻⁶ cm/s	–	–	–	8.4 ×10⁻⁶ cm/s	9.3 ×10⁻⁶ cm/s	13 ×10⁻⁶ cm/s
